Counter-ions that a name gives are not always drawn. Like-named read-outs stand apart in the source and are kept apart here.
Tests used:
[1] = pKa of asenapine maleate; assay type: physicochemical
[2] = Solubility of asenapine maleate in water and solvents; assay type: physicochemical

pKa [1]: 8.64 | solubility ([2]; N-methylpyrrolidone, organic solvent or mixture, NMP, read-out: N-methylpyrrolidone (NMP) solubility): 700 mg/mL | solubility ([2]; benzyl alcohol, organic solvent or mixture, BA, read-out: benzyl alcohol (BA) solubility): 500 mg/mL | solubility ([2]; dichloromethane, organic solvent or mixture, DCM, read-out: dichloromethane (DCM) solubility): 324 mg/mL | solubility ([2]; dimethyl sulfoxide, organic solvent or mixture, DMSO, read-out: dimethyl sulfoxide (DMSO) solubility): 700 mg/mL | solubility ([2]; ethanol, organic solvent or mixture, EtOH, read-out: ethanol (EtOH) solubility): 100 mg/mL | solubility ([2]; ethyl acetate, organic solvent or mixture, EA, read-out: ethyl acetate (EA) solubility): 10 mg/mL | solubility ([2]; water, read-out: water solubility): 3 mg/mL
Structure (SMILES): CN1C[C@@H]2c3ccccc3Oc3ccc(Cl)cc3[C@H]2C1 (racemic) [asenapine maleate]

Source: patent US20250032451A1, “MICROSPHERE FORMULATIONS COMPRISING ASENAPINE AND METHODS FOR MAKING AND USING THE SAME” (Oakwood Laboratories, LLC, priority 2021, published 2025)
